The results in this text go back to patent US7786137B2, “Bicyclic derivatives as modulators of ion channels” (Vertex Pharmaceuticals Incorporated, priority 2005, dated 2010).

The structures appear in SMILES notation. pIC50: −log10 of the molar value.

Chain of NaV1.3 (Q9NY46 whole entry): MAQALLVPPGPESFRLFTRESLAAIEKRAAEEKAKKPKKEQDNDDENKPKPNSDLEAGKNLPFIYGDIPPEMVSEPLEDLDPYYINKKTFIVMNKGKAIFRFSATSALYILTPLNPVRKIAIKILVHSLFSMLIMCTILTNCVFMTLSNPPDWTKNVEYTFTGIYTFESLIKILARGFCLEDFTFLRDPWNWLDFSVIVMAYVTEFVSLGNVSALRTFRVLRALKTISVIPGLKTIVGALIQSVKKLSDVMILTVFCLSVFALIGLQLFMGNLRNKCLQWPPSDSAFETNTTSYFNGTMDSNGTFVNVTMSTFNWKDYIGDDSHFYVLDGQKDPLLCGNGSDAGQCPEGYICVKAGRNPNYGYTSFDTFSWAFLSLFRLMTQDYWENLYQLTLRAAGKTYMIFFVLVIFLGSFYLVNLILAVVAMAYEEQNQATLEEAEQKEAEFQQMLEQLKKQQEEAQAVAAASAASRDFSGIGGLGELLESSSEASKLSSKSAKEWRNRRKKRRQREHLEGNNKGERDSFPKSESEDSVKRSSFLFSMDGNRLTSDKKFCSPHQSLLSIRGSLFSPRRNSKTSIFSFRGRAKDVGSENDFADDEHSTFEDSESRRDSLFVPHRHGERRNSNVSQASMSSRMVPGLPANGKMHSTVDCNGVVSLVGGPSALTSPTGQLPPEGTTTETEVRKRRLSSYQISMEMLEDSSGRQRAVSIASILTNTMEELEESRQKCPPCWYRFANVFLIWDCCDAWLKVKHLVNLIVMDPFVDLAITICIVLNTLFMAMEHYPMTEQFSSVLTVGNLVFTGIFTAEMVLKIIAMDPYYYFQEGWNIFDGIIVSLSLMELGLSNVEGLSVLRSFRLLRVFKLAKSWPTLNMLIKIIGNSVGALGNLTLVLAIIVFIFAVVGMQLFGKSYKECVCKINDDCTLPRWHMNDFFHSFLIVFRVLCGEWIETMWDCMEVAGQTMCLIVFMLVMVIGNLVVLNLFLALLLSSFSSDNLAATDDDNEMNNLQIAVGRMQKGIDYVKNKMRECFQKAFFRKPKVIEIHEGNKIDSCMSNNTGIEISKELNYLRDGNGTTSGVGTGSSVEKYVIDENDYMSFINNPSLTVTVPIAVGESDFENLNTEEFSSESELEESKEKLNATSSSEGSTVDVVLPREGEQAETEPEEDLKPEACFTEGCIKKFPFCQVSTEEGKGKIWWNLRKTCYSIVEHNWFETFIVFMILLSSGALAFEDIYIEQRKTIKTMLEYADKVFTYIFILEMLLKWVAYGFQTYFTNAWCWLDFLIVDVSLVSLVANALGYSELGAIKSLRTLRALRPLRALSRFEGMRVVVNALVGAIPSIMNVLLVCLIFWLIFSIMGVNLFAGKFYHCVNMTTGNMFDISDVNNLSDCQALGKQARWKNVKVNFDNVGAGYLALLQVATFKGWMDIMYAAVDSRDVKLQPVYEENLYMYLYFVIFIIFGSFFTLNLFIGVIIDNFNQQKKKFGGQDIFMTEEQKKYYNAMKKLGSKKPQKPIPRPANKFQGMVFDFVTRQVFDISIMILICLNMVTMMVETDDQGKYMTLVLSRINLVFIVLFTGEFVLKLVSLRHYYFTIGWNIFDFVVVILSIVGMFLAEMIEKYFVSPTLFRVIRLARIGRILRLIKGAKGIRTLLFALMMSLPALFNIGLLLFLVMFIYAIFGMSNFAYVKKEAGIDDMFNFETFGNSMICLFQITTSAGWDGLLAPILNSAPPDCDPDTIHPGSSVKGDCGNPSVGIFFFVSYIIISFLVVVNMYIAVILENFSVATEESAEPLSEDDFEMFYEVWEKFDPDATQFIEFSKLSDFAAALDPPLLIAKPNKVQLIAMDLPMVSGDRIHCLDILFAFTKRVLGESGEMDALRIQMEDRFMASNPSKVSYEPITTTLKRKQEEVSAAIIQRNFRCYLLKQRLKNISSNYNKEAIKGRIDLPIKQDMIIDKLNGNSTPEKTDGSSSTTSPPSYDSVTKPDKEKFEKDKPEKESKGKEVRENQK

The assay addresses NaV1.3 (Homo sapiens, UniProt Q9NY46). Nature of the assay: VIPR optical membrane potential assay, NaV1.3 inhibition. Particulars: activity against NaV 1.3 channel. Details: expressed in transfected cells; host or cells: HEK293. In kind it is cell-based. As to the method: Antagonist properties of test compounds were assessed as follows. Cells expressing the NaV of interest were placed into microtiter plates. After an incubation period, the cells were stained with fluorescent dyes sensitive to the transmembrane potential. The test compounds were added to the microtiter plate. The cells were stimulated with either a chemical or electrical means to evoke a NaV dependent membrane potential change from unblocked channels, which was detected and measured with trans-membrane potential-sensitive dyes. Antagonists were detected as a decreased membrane potential response to the stimulus.
The following is an example of how NaV1.3 inhibition activity is measured using the optical membrane potential method#2. Other subtypes are performed in an analogous mode in a cell line expressing the NaV of interest.
HEK293 cells stably expressing NaV1.3 are plated into 96-well microtiter plates. After an appropriate incubation period, the cells are stained with the voltage sensitive dyes CC2-DMPE/DiSBAC2(3) as follows.
2× CC2-DMPE=20 μM CC2-DMPE: 10 mM CC2-DMPE is vortexed with an equivalent volume of 10% pluronic, followed by vortexing in required amount of HBSS containing 10 mM HEPES. Each cell plate will require 5 mL of 2× CC2-DMPE. 50 μL of 2× CC2-DMPE is to wells containing washed cells, resulting in a 10 μM final staining concentration. The cells are stained for 30 minutes in the dark at RT.
2× DISBAC2(3) with ABSC1=6 μM DISBAC2(3) and 1 mM ABSC1: The required amount of 10 mM DISBAC2(3) is added to a 50 ml conical tube and mixed with 1 μL 10% pluronic for each mL of solution to be made and vortexed together. Then HBSS/HEPES is added to make up 2× solution. Finally, the ABSC1 is added.
The 2× DiSBAC2(3) solution can be used to solvate compound plates. Note that compound plates are made at 2× drug concentration. Wash stained plate again, leaving residual volume of 50 μL. Add 50 μL/well of the 2× DiSBAC2(3) w/ABSC1. Stain for 30 minutes in the dark at RT.
The instrument comprises a microtiter plate handler, an optical system for exciting the coumarin dye while simultaneously recording the coumarin and oxonol emissions, a waveform generator, a current- or voltage-controlled amplifier, and a device for inserting electrodes in well. Under integrated computer control, this instrument passes user-programmed electrical stimulus protocols to cells within the wells of the microfilter plate.
Insert or use electrodes into each well to be assayed.
Use the current-controlled amplifier to deliver stimulation wave pulses for 3 s. Two seconds of pre-stimulus recording are performed to obtain the un-stimulated intensities. Five seconds of post-stimulation recording are performed to examine the relaxation to the resting state.
Data are analyzed and reported as normalized ratios of background-subtracted emission intensities measured in the 460 nm and 580 nm channels. Background intensities are then subtracted from each assay channel. Background intensities are obtained by measuring the emission intensities during the same time periods from identically treated assay wells in which there are no cells. The response as a function of time is then reported as the ratios obtained using the following formula: […]
The data is further reduced by calculating the initial (Ri) and final (Rf) ratios. These are the average ratio values during part or all of the pre-stimulation period, and during sample points during the stimulation period. The response to the stimulus ? =Rf/Ri is then calculated.
Control responses are obtained by performing assays in the presence of a compound with the desired properties (positive control), such as tetracaine, and in the absence of pharmacological agents (negative control). Responses to the negative (N) and positive (P) controls are calculated as above. The compound antagonist activity A is defined as:
[formula] where R is the ratio response of the test compound.
Regarding `O=C(COc1ccnc2c(C(F)(F)F)cccc12)N1Cc2ccc(S(=O)(=O)Nc3ncns3)cc2C1` [Compound 122], the pIC50 was above 5.70. Compound `O=C(c1ccccc1F)N1CCc2ccc(S(=O)(=O)Nc3nccs3)cc2C1` [Compound 123] showed a pIC50 of 5.30 to 5.70.

The compound `C[C@@H](C(=O)N1Cc2ccc(S(=O)(=O)Nc3ncns3)cc2C1)n1ccc2c(F)cccc21` [Compound 124] had a pIC50 above 5.70. Under `CC(Oc1ccccc1)C(=O)N1CCc2cc(S(=O)(=O)Nc3ncns3)ccc21` (stereo not drawn) [Compound 125] stands above 5.70; under `O=C(c1ccc(Cl)c(Cl)c1)n1ccc2cc(S(=O)(=O)Nc3nccs3)ccc21` [Compound 126], 5.30 to 5.70. `O=C(CCn1ccc2cc(Cl)ccc21)N1Cc2ccc(S(=O)(=O)Nc3ncns3)cc2C1` [Compound 127] showed a pIC50 above 5.70. As to `Cc1ccc(C(=O)n2ccc3cc(S(=O)(=O)Nc4nccs4)ccc32)cc1F` [Compound 128], the negative logarithm of the IC50 (pIC50) was above 5.70. The figure for `O=C(COc1cccnc1)N1CCc2cc(S(=O)(=O)Nc3nccs3)ccc21` [Compound 129] is below 5.30; for `C[C@@H](C(=O)N1CCc2cc(S(=O)(=O)Nc3ncns3)ccc21)n1ccc2ccccc21` [Compound 130] it is below 5.30.

`O=C(COc1cccc(Cl)c1)N1CCc2cc(S(=O)(=O)Nc3nccs3)ccc21` [Compound 131] showed a pIC50 above 5.70.

The compound `O=C(c1ccc(C(F)(F)F)cc1)N1CCCc2cc(S(=O)(=O)Nc3nccs3)ccc21` [Compound 132] gave a pIC50 of 5.30 to 5.70. The figure for `O=C(CN1CCCc2cc(Cl)ccc21)N1CCc2cc(S(=O)(=O)Nc3ccncn3)ccc21` [Compound 133] is below 5.30; for `Cc1ccccc1OCC(=O)N1CCc2cc(S(=O)(=O)Nc3nccs3)ccc21` [Compound 134] it is above 5.70; for `CCc1nnc(NS(=O)(=O)c2ccc3c(c2)CN(C(=O)[C@@H](C)N2CCCc4cc(Cl)ccc42)C3)s1` [Compound 135] it is 5.30 to 5.70. Under `O=C(Cc1c(Cl)cccc1Cl)N1CCc2cc(S(=O)(=O)Nc3nccs3)ccc21` [Compound 136] stands above 5.70.

For the compound `O=C(CN1CCc2ccc(F)cc2C1)N1CCc2cc(S(=O)(=O)Nc3nccs3)ccc21` [Compound 137], the pIC50 was above 5.70. Under `Cc1cccc(C)c1OCC(=O)N1CCc2cc(S(=O)(=O)Nc3nccs3)ccc21` [Compound 138] stands above 5.70; under `CC(C)(C)c1ccc(OCC(=O)N2CCCc3cc(S(=O)(=O)Nc4ncns4)ccc32)cc1` [Compound 139], above 5.70; under `O=C(COc1ccnc2c(C(F)(F)F)cccc12)N1CCc2ccc(S(=O)(=O)Nc3nccs3)cc2C1` [Compound 140], above 5.70.

In the case of `CC(Oc1ccc(OC(F)(F)F)cc1)C(=O)N1CCc2ccc(S(=O)(=O)Nc3nccs3)cc2C1` (stereo not drawn) [Compound 141], the pIC50 is below 5.30. Under `C[C@@H](C(=O)N1CCc2cc(S(=O)(=O)Nc3ncns3)ccc21)n1ccc2c(F)cccc21` [Compound 142] stands above 5.70.

The compound `O=C(CNc1ccccc1F)N1CCc2cc(S(=O)(=O)Nc3nccs3)ccc21` [Compound 144] showed a negative-log IC50 (pIC50) above 5.70.

Consider `C[C@H](C(=O)N1Cc2ccc(S(=O)(=O)Nc3ccc(Cl)nn3)cc2C1)N1CCCc2cc(Cl)ccc21` [Compound 146], for which the pIC50 was below 5.30. For `O=C(COc1ccc(Cl)cc1)N1CCc2cc(S(=O)(=O)Nc3ncns3)ccc21` [Compound 147], the pIC50 was above 5.70. `CC(Oc1ccccc1Cl)C(=O)N1CCc2cc(S(=O)(=O)Nc3nccs3)ccc21` (stereo not drawn) [Compound 148] had a negative logarithm of the IC50 (pIC50) above 5.70. In the case of `O=C(COc1ccccc1Cl)N1CCc2ccc(S(=O)(=O)Nc3nccs3)cc2C1` [Compound 149], the pIC50 is above 5.70. The figure for `CC(C)(C)c1ccc(OCC(=O)N2CCc3ccc(S(=O)(=O)Nc4nccs4)cc3C2)cc1` [Compound 150] is below 5.30; for `O=C(c1ccc(Cl)cc1Cl)N1CCc2ccc(S(=O)(=O)Nc3nccs3)cc2C1` [Compound 151] it is 5.30 to 5.70.

For `Cc1nnc(NS(=O)(=O)c2ccc3c(c2)CN(C(=O)COc2ccnc4c(C(F)(F)F)cccc24)CC3)s1` [Compound 152], the pIC50 was below 5.30.

As to `O=C(CN1CCC(F)(F)CC1)N1CCc2cc(S(=O)(=O)Nc3nccs3)ccc21` [Compound 153], the pIC50 was below 5.30.

`O=C(COc1ccc(F)c(Cl)c1)N1CCCc2cc(S(=O)(=O)Nc3nccs3)ccc21` [Compound 154]: the pIC50 was above 5.70. The compound `CC(C)(C)c1ccc(OCC(=O)N2Cc3ccc(S(=O)(=O)Nc4nccs4)cc3C2)cc1` [Compound 155] gave a pIC50 above 5.70. The compound `O=C(CCCOc1ccc(Cl)cc1Cl)N1CCc2cc(S(=O)(=O)Nc3ncccn3)ccc21` [Compound 156] showed a pIC50 below 5.30. The compound `O=S(=O)(Nc1nccs1)c1ccc2c(c1)CCN2CCNc1nc2ccccc2s1` [Compound 157] had a negative-log IC50 (pIC50) below 5.30. Under `COc1ccc(CCC(=O)N2CCc3cc(S(=O)(=O)Nc4nccs4)ccc32)cc1` [Compound 159] stands above 5.70; under `CC(Oc1ccccc1Cl)C(=O)n1ccc2cc(S(=O)(=O)Nc3nccs3)ccc21` (stereo not drawn) [Compound 160], 5.30 to 5.70. The figure for `O=C(CNC1CCC1)N1CCc2cc(S(=O)(=O)Nc3nccs3)ccc21` [Compound 161] is below 5.30. The figure for `O=C(c1cc(Cl)ccc1Cl)n1ccc2cc(S(=O)(=O)Nc3nccs3)ccc21` [Compound 162] is 5.30 to 5.70; for `O=C(Oc1ccccc1)N1CCc2cc(S(=O)(=O)Nc3nccs3)ccc21` [Compound 163] it is 5.30 to 5.70; for `C[C@@H](C(=O)N1Cc2ccc(S(=O)(=O)Nc3ncns3)cc2C1)n1ccc2ccccc21` [Compound 164] it is above 5.70. The compound `COc1cccc(NCC(=O)N2CCc3cc(S(=O)(=O)Nc4nccs4)ccc32)c1` [Compound 165] had a negative-log IC50 (pIC50) below 5.30. `O=C(c1ccc(C(F)(F)F)cc1)N1CCc2cc(S(=O)(=O)Nc3nccs3)ccc21` [Compound 166] had a pIC50 above 5.70.

As for `O=C(COc1ccc(OC(F)(F)F)cc1)N1CCc2cc(S(=O)(=O)Nc3ncns3)ccc21` [Compound 167], the pIC50 is above 5.70.

In turn, `COc1ccc(CC(=O)N2CCc3ccc(S(=O)(=O)Nc4nccs4)cc3C2)cc1` [Compound 168] showed a negative logarithm of the IC50 (pIC50) below 5.30. Consider `O=C(CN1CCC(F)(F)C1)N1CCCc2cc(S(=O)(=O)Nc3nccs3)ccc21` [Compound 169], for which the negative-log IC50 (pIC50) was below 5.30. With `O=C(CNCc1ccncc1)N1CCc2cc(S(=O)(=O)Nc3nccs3)ccc21` [Compound 171], the pIC50 is below 5.30.

The compound `O=C(CCn1ccc2cc(Cl)ccc21)N1CCc2cc(S(=O)(=O)Nc3ncns3)ccc21` [Compound 172] gave a negative logarithm of the IC50 (pIC50) above 5.70. For the compound `CC(C)(Oc1ccc(Cl)cc1)C(=O)n1ccc2cc(S(=O)(=O)Nc3nccs3)ccc21` [Compound 173], the negative-log IC50 (pIC50) was 5.30 to 5.70. The figure for `CC(Oc1cccc(Cl)c1)C(=O)N1CCc2ccc(S(=O)(=O)Nc3nccs3)cc2C1` (stereo not drawn) [Compound 174] is 5.30 to 5.70; for `O=C(CN1CCC(F)(F)CC1)N1CCCc2cc(S(=O)(=O)Nc3nccs3)ccc21` [Compound 175] it is below 5.30. The figure for `O=C(c1ccccc1C(F)(F)F)n1ccc2cc(S(=O)(=O)Nc3nccs3)ccc21` [Compound 176] is 5.30 to 5.70; for `O=C(CCn1ccc2cc(Cl)ccc21)N1Cc2ccc(S(=O)(=O)Nc3nccs3)cc2C1` [Compound 177] it is above 5.70; for `COc1cc(C(=O)N2CCc3cc(S(=O)(=O)Nc4nccs4)ccc32)ccc1C` [Compound 178] it is 5.30 to 5.70.

On to `Cc1ccc(C(=O)N2CCc3cc(S(=O)(=O)Nc4ncns4)ccc32)cc1Cl` [Compound 179], for which the negative logarithm of the IC50 (pIC50) is above 5.70.

One may read the pIC50 as the IC50 on a negative log10 scale, so that one unit is a factor of ten. Higher therefore signals a small IC50.
